For nine compounds, Ki results are on record in BindingDB's records for doi:10.1016/j.ejmech.2010.02.027 (University of Florida, 2010).

Molecules are shown by their SMILES.

The target of this assay is Neuronal acetylcholine receptor subunit alpha-4/beta-2 (Rattus norvegicus, UniProt P09483+P12390). Description: Displacement of [3H]cytisine from alpha4beta2 nAChR in rat brain membrane after 3 hrs.
Sequence of Neuronal acetylcholine receptor subunit alpha-4/beta-2 (P09483 whole entry): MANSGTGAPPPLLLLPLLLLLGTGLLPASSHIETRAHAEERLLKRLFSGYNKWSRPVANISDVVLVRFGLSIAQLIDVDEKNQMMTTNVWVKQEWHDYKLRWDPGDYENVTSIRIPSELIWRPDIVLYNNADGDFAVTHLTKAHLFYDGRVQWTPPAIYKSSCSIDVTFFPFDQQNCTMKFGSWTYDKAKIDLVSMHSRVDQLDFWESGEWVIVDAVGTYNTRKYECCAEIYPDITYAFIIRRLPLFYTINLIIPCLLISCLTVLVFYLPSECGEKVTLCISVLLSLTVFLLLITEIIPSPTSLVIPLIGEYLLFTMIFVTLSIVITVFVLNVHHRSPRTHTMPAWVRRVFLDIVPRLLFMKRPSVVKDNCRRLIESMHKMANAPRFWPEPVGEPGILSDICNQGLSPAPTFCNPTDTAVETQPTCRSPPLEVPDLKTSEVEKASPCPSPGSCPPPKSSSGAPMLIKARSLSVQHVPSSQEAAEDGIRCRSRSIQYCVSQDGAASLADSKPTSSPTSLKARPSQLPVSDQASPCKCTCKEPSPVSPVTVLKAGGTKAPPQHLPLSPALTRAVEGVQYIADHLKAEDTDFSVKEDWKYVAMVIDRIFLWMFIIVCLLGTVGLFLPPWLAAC
Sequence of Neuronal acetylcholine receptor subunit alpha-4/beta-2 (P12390 whole entry): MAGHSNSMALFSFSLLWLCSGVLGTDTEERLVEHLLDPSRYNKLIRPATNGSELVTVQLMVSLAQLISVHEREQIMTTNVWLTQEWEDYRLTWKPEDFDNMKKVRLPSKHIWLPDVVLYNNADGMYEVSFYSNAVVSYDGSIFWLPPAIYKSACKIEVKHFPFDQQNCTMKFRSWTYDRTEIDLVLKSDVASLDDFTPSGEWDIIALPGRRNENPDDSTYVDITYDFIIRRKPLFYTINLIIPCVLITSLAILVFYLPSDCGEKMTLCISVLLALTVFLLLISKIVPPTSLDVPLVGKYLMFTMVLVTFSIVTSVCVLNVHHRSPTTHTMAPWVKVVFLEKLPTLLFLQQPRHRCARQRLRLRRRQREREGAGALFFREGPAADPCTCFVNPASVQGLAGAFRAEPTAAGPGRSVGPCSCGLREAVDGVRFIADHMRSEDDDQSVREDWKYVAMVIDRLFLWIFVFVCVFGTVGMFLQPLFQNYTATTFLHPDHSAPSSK
In the case of `COc1ccc(/C=C2\CCCN=C2c2cccnc2)c(OC(C)C)c1` [3-(2-i-Propoxy-4-methoxybenzylidene)anabaseine], the affinity corresponds to a Ki of 770 nM. The compound `COc1cc(/C=C2\CCCN=C2c2cccnc2)cc(OC)c1OC` [3-(3,4,5-Trimethoxybenzylidene)anabaseine] had an inhibition constant (Ki) of 669 nM. The compound `CC(=O)Oc1ccc(/C=C2\CCCN=C2c2cccnc2)cc1` [3-(4-Acetoxybenzylidene)anabaseine] gave an inhibition constant (Ki) of 602 nM. The Ki values of the last two compounds are within 1.5-fold of each other. `Nc1ccc(/C=C2\CCCN=C2c2cccnc2)cc1` [3-(4-Aminobenzylidene)anabaseine] displayed a Ki of 921 nM. The compound `CN(C)c1ccc(/C=C2\CCCN=C2c2cccnc2)cc1` [3-(4-Dimethylaminobenzylidene)anabaseine] had a Ki of 770 nM. The Ki values of the last two compounds are within 1.5-fold of each other. Compound `CCCc1ccc(/C=C2\CCCN=C2c2cccnc2)cc1` [3-(4-n-Propylbenzylidene)anabaseine] registered an inhibition constant (Ki) of 51 nM. Against the preceding compound, the Ki is about 15-fold lower. Regarding `C(=C1/CCCN=C1c1cccnc1)/c1cc2ccccc2o1` [3-(Benzofuran-2-ylmethylene)anabaseine], the Ki came out at 772 nM. Compared with the last compound, the Ki is about 15-fold higher. The compound `CCC(CC)Oc1cc(OC)ccc1/C=C1\CCCN=C1c1cccnc1` [3-[2-(Pentan-3-yloxy)-4-methoxybenzylidene]anabaseine] had a Ki of 367 nM.

For the compound `CC(=O)Nc1ccc(/C=C2\CCCN=C2c2cccnc2)cc1` [N-(4-((2-(pyridin-3-yl)-5,6-dihydropyridin-3(4H)-ylidene)methyl)phenyl)acetamide], the inhibition constant Ki is 420 nM.

The term Ki denotes the equilibrium dissociation constant of an inhibitor or competing ligand from its target. A low value points to a stronger hold on the target.
